Blank lines part the entries; values can stand above or below the compound they belong to. Active and inactive are the calls of the source. No cut-off for these calls is given here.
What was measured:
AML12 [1] = assay: Inhibition of mitochondrial membrane potential in mouse AML12 cells under UV light-irradiation by JC-1 staining based analysis; type: functional, cell-based
[2] = Prodrug conversion in mouse AML12 cells assessed as H2S metabolite release at 10 uM incubated for 4 hrs followed by UV light-irradiation for 1 min by WSP-5 probe based analysis; type: ADME, cell-based; conditions: aml12, 4.017 h, time 241 min
[3] = Prodrug release in mouse AML12 cells assessed as H2S metabolite release at 10 uM incubated for 4 hrs followed by UV light-irradiation for 1 min by 2-OH-Cou probe based analysis; type: ADME, cell-based; conditions: aml12, 4.017 h, time 241 min
AML12 [4] = assay: Cytotoxicity against mouse AML12 cells pretreated for 24 hrs followed by UV light-irradiation for 1 min by MTT assay; type: toxicity, cell-based; conditions: aml12, 24.02 h, time 1441 min
[5] = Drug uptake in mouse AML12 cells at 10 uM incubated for 4 hrs followed by UV light-irradiation for 1 min by WSP-5 probe based analysis; type: ADME, cell-based; conditions: aml12, 4.017 h, time 241 min
AML12 [6] = assay: Inhibition of mitochondrial membrane potential in mouse AML12 cells under UV light-irradiation measured for 30 mins by TMRE staining based analysis; type: functional, cell-based
AML12 [7] = assay: Induction of mitochondrial ROS in mouse AML12 cells harboring SQR knockdown under photo-irradiation; type: functional, cell-based
AML12 [8] = assay: Inhibition of excessive lipid deposition in mouse AML12 cells assessed as decrease in palmitic acid-induced lipid content by Oil Red O staining based analysis; type: functional, cell-based; conditions: dose 1-10 µM
[9] = Prodrug conversion assessed as H2S metabolite release upto 100 uM under photo-irradiation by methylene blue dye based analysis; type: ADME
AML12 [10] = assay: Induction of H2O2 generation in mitochondria of mouse AML12 cells harboring SQR knockdown under photo-irradiation; type: functional
AML12 [11] = assay: Activation of mitochondrial AMPK in mouse AML12 cells assessed as increase in pACC level under light irradiation by Western blot analysis; type: cell-based; conditions: filed as activator, dose <= 10.0 µM
AML12 [12] = assay: Induction of mitochondrial ROS via reverse electron transport driven by sulfide quinone oxidoreductase in mouse AML12 cells under photo-irradiation by MitoSOX staining based analysis; type: functional, cell-based
AML12 [13] = assay: Activation of mitochondrial AMPK in mouse AML12 cells assessed as increase in pMFF level under light irradiation upto 10 uM by Western blot analysis; type: cell-based; conditions: filed as activator
[14] = Prodrug conversion in mouse AML12 cells assessed as H2S metabolite release at 1 to 10 uM incubated for 4 hrs followed by UV light-irradiation for 1 min by WSP-5 probe based analysis; type: ADME, cell-based; conditions: aml12, 4.017 h, dose 1-10 µM, time 241 min
[15] = Prodrug release in mouse AML12 cells assessed as H2S metabolite release at 1 to 10 uM incubated for 4 hrs followed by UV light-irradiation for 1 min by 2-OH-Cou probe based analysis; type: ADME, cell-based; conditions: aml12, 4.017 h, dose 1-10 µM, time 241 min
AML12 [16] = assay: Induction of H2O2 generation in mitochondria of mouse AML12 cells under photo-irradiation; type: functional
AML12 [17] = assay: Activation of mitochondrial AMPK in mouse AML12 cells harboring SQR knockdown assessed as increase in pMFF level under light irradiation at 1 to 10 uM by Western blot analysis; type: cell-based; conditions: dose 1-10 µM
AML12 [18] = assay: Induction of mitochondrial uncoupling in oligomycin-treated mouse AML12 cells assessed as increase in OCR level at 10 uM incubated for 4 hrs followed by UV light-irradiation for 1 min under photo-irradiation; type: functional, cell-based; conditions: time 241.0 min
AML12 [19] = assay: Activation of mitochondrial AMPK phosphorylation in mouse AML12 cells under light irradiation by Western blot analysis; type: cell-based; conditions: filed as activator, dose <= 10.0 µM
AML12 [20] = assay: Induction of mitochondrial uncoupling in oligomycin-treated mouse AML12 cells assessed as decrease in intracellular ATP level incubated for 4 hrs followed by UV light-irradiation for 1 min under photo-irradiation; type: functional, cell-based; conditions: dose <= 10.0 µM, time 241.0 min
AML12 [21] = assay: Induction of mitochondrial ROS via reverse electron transport driven by sulfide quinone oxidoreductase in mouse AML12 cells assessed as increase in ratio of CoQH2/CoQ levels under photo-irradiation; type: functional, cell-based
AML12 [22] = assay: Activation of mitochondrial AMPK in mouse AML12 cells assessed as increase in pMFF level under light irradiation at 1 to 10 uM in presence of rotenone by Western blot analysis; type: cell-based; conditions: dose 1-10 µM
AML12 [23] = assay: Inhibition of excessive lipid deposition in mouse AML12 cells assessed as decrease in palmitic acid-induced total cholesterol at 1 to 10 uM by Oil Red O staining based analysis; type: functional, cell-based; conditions: dose 1-10 µM
AML12 [24] = assay: Induction of mitochondrial ROS via reverse electron transport driven by sulfide quinone oxidoreductase in mouse AML12 cells assessed as decrease in ratio of NAD+/NADH levels under photo-irradiation in presence of rotenone; type: functional, cell-based
AML12 [25] = assay: Inhibition of mitochondrial membrane potential in mouse AML12 cells under UV light-irradiation measured after 24 hrs by TMRE staining based analysis; type: functional, cell-based
AML12 [26] = assay: Induction of mitochondrial ROS via reverse electron transport driven by sulfide quinone oxidoreductase in mouse AML12 cells assessed as decrease in ratio of NAD+/NADH levels under photo-irradiation; type: functional, cell-based
AML12 [27] = assay: Activation of mitochondrial AMPK signal pathway in palmitic acid-stimulated mouse AML12 cells under light irradiation in presence of AMPK inhibitor by Western blot analysis; type: cell-based
AML12 [28] = assay: Inhibition of excessive lipid deposition in mouse AML12 cells assessed as decrease in palmitic acid-induced total triglycerides at 1 to 10 uM by Oil Red O staining based analysis; type: functional, cell-based; conditions: dose 1-10 µM
AML12 [29] = assay: Inhibition of excessive lipid deposition in mouse AML12 cells assessed as decrease in palmitic acid-induced free fatty acid at 1 to 10 uM by Oil Red O staining based analysis; type: functional, cell-based; conditions: dose 1-10 µM
[30] = Prodrug conversion in mouse AML12 cells assessed as H2S metabolite release at 10 uM incubated for 4 hrs followed by UV light-irradiation for 1 min by […] based analysis; type: ADME, cell-based; conditions: aml12, 4 h
AML12 [31] = assay: Activation of mitochondrial AMPK signal pathway in palmitic acid-stimulated mouse AML12 cells assessed as increase in pACC level under light irradiation at 1 to 10 uM by Western blot analysis; type: cell-based; conditions: filed as activator, dose 1-10 µM

Compound: Oc1ccc(-c2cc(=S)ss2)cc1
inhibition (AML12 [1]): inactive

Drug metabolism [2]: metabolite_detected
Compound: O=C(CCCCCCCCC[P+](c1ccccc1)(c1ccccc1)c1ccccc1)Oc1ccc(-c2cc(=S)ss2)cc1.[Br-]
inhibition (AML12 [1]): inactive

Drug metabolism [3]: metabolite_notdetected
Compound: Cc1cc(C)c(C(C)(C)CC(=O)S)c(OC(=O)OCc2cc3ccc(OCc4ccccc4[N+](=O)[O-])cc3oc2=O)c1
inhibition (AML12 [1]): inactive
Activity (AML12 [4]): Non-toxic

Drug uptake [5]: 100%
Activity [9]: Active
Drug metabolism [14]: metabolite_detected
Drug metabolism [15]: metabolite_detected
Drug metabolism [3]: metabolite_detected
Drug metabolism [30]: metabolite_detected
Compound: Cc1cc(C)c(C(C)(C)CC(=O)S)c(OC(=O)OCc2cc3ccc(OCc4cc(OCCCC[P+](c5ccccc5)(c5ccccc5)c5ccccc5)ccc4[N+](=O)[O-])cc3oc2=O)c1
inhibition (AML12 [6]): Active
Activity (AML12 [7]): Active
inhibition (AML12 [8]): Dose-dependent-effect; Exhibited As More Effective Than Ap39 And Adt-Oh
Activity (AML12 [10]): Active
Activity (AML12 [11]): Dose-dependent-effect; Exhibited More Potency Than Ap39 And Adt-Oh
Activity (AML12 [12]): Active
Activity (AML12 [13]): Active
Activity (AML12 [16]): Active
Activity (AML12 [17]): inactive
Activity (AML12 [18]): Active
Activity (AML12 [19]): Dose-dependent-effect; Exhibited More Potency Than Ap39 And Adt-Oh
inhibition (AML12 [1]): inactive
Activity (AML12 [20]): Dose-dependent-effect; Activity Superior To M2, Ap39, Adt-Oh
Activity (AML12 [21]): Active
Activity (AML12 [22]): inactive
inhibition (AML12 [23]): Active
Activity (AML12 [24]): inactive
inhibition (AML12 [25]): inactive
Activity (AML12 [26]): Active
Activity (AML12 [27]): inactive
inhibition (AML12 [28]): Active
inhibition (AML12 [29]): Active
Activity (AML12 [4]): Non-toxic
Activity (AML12 [31]): Active; Exhibited More Potency Than Ap39 And Adt-Oh
